From paper PMC10205807, “Cross-species comparison in nonclinical pharmacokinetics of lenvatinib by a simple HPLC with ultraviolet detection” (Scientific Reports, 2023)

Columns and labels:
[1] = system: plasma protein; assay: plasma unbound fraction, humans; type: in vitro ADME; details: human
[2] = PK study in mice (intravenous and oral); type: in vivo
Experimental: Female BALB/cAnNCrj-nu/nu mice were purchased from Charles River Laboratories (Kanagawa, Japan) and were acclimatized for 9 days prior to use in the PK study. At the dosing day, 7-week-old mice were used. E7080 was dissolved in 5% glucose injection to make a 0.3 mg/mL solution for intravenous administration and dissolved in water to make 0.3, 1, and 3 mg/mL solutions for oral administrations. Lenvatinib was intravenously administered at the dose of 3 mg/kg via the tail vein using a disposable syringe and oral administration was performed by gastric gavage at the doses of 3, 10, and 30 mg/kg at the dosing volume of 10 mL/kg (n = 3/time point/dose). Whole blood samples were drawn from the vena cava using heparinized syringes at 5, 15, and 30 min, and 1, 2, 4, 6, 8, 12, and 24 h postdose. Plasma samples were obtained by centrifugation and aliquots of plasma were transferred to a tube and stored below − 15 °C until assayed.
PK parameters of lenvatinib were estimated by model independent analysis using a WinNonlin program (Version 4.1, Pharsight Corporation, Mountain View, CA). The time to reach the maximum plasma concentration (Tmax) and the maximum plasma concentration (Cmax) values were obtained directly from the plasma concentration data. Terminal half-life (T1/2) was calculated by ln2/ke, where ke is the slope of the regression line that fits the portion of the terminal phase (at least three time points) in the log-linear concentration–time curve. AUC0–t and AUMC0–t, the area under the concentration–time curves and the area under the first moment curve, from time = zero to time = t, respectively, were calculated using the lenvatinib concentrations in plasma by the linear/log trapezoidal method. AUC0–inf was calculated by AUC0–t + Ct/ke, and AUMC0–inf was AUMC0–t + Ct × t/ke + Ct/(ke)^2, where Ct is the last measurable concentration at time = t. The plasma concentration at time zero for the intravenous dose was extrapolated, while zero was used for the oral doses. Mean residence time (MRT), total plasma clearance (CLtot) and the volume of distribution at steady state (Vdss) were calculated by AUMC0–inf/AUC0–inf, Dose/AUC0–inf and CLtot × MRT, respectively. Oral bioavailability (F) was estimated by comparing dose-normalized AUC0–inf after oral (AUC0–inf.po) and intravenous (AUC0–inf.iv) administration as follows: F (%) = (AUC0–inf.po/AUC0–inf.iv) × 100.

[3] = female, BALB/cAnNCrj-nu/nu, mouse, plasma, intravenous 3 mg/kg
[4] = female, BALB/cAnNCrj-nu/nu, mouse, plasma, oral 3 mg/kg
[5] = female, BALB/cAnNCrj-nu/nu, mouse, plasma, oral 10 mg/kg
[6] = female, BALB/cAnNCrj-nu/nu, mouse, plasma, oral 30 mg/kg

- fraction unbound [1]: 0.0172
- CLint (hepatic intrinsic clearance) ([2]; estimated from oral PK, Fa and Fg assumed unity, BW 0.02 kg): 325 mL/h
- AUC(0-inf) [2, 3]: 8690 ng·h/mL
- MRT [2, 3]: 2.07 h
- C0 ([2]; female, BALB/cAnNCrj-nu/nu, mouse, plasma, intravenous 3 mg/kg, extrapolated): 8290 ng/mL
- clearance ([2]; female, BALB/cAnNCrj-nu/nu, mouse, plasma, intravenous 3 mg/kg, read-out: CLtot (converted)): 5.75 mL/min/kg
- Vd ([2]; female, BALB/cAnNCrj-nu/nu, mouse, plasma, intravenous 3 mg/kg, read-out: Vdss): 0.714 L/kg
- half-life ([2]; female, BALB/cAnNCrj-nu/nu, mouse, plasma, iv, 3 mg/kg, intravenous 3 mg/kg): 2.05 h
- AUC(0-inf) [2, 4]: 5600 ng·h/mL
- Cmax [2, 4]: 1970 ng/mL
- MRT [2, 4]: 3.28 h
- Tmax [2, 4]: 0.5 h
- bioavailability ([2]; female, BALB/cAnNCrj-nu/nu, mouse, plasma, oral 3 mg/kg vs intravenous 3 mg/kg, read-out: F (oral bioavailability)): 64.4%
- AUC(0-inf) [2, 5]: 27700 ng·h/mL
- Cmax [2, 5]: 10500 ng/mL
- MRT [2, 5]: 3.01 h
- Tmax [2, 5]: 0.5 h
- AUC(0-inf) [2, 6]: 118000 ng·h/mL
- Cmax [2, 6]: 31300 ng/mL
- MRT [2, 6]: 3.29 h
- Tmax [2, 6]: 1 h
- half-life ([2]; female, BALB/cAnNCrj-nu/nu, mouse, plasma, po, 3 mg/kg, oral 3 mg/kg): 2.09 h
- half-life ([2]; female, BALB/cAnNCrj-nu/nu, mouse, plasma, po, 10 mg/kg, oral 10 mg/kg): 1.74 h
- half-life ([2]; female, BALB/cAnNCrj-nu/nu, mouse, plasma, po, 30 mg/kg, across 3, 10, and 30 mg/kg): 1.74 to 2.09 h
- half-life ([2]; female, BALB/cAnNCrj-nu/nu, mouse, plasma, po, 30 mg/kg, oral 30 mg/kg): 1.85 h
Compound: COc1cc2nccc(Oc3ccc(NC(=O)NC4CC4)c(Cl)c3)c2cc1C(N)=O [lenvatinib, Lenvatinib]
